Measured values taken from patent publication US12098352B2, “Stem cell-based lung-on-chip models” (EMULATE, INC., priority 2018, dated 2024).
Entries after “also recorded” stand apart in the source; their conditions may differ.

Columns and labels:
ICAM1 = ICAM1 immunostaining of endothelial cells (HMECs) lining the vascular surface of the Chip; assay type: cell-based, human
Description: FIG. 22A Effect of LPS on Vascular Expression of ICAM1. […] Representative images (20×) of endothelial cells (HMECs) lining the vascular surface of the Chip fixed and stained for ICAM1 (red) at 24 h post LPS treatment of the alveolar epithelial compartment. Nuclei are colored blue. […] IL-6, il-8 and MCP-1 have 40-90 fold increases in relation to untreated controls. FIG. 22C Detection of exemplary Lung-Specific Cytokines and Chemokines, IL-6; IL-8; MCP-1 and RANTES, in response to LPS stimulation. Co-cultures of Epithelium/Fibroblasts/Vasculature induced higher levels of cytokines than co-cultures of Epithelium/Vasculature; Fibroblasts/Vasculature or Vasculature alone.
Interconnectivity refers to the observation that adding a compound to the epithelial side may induce a cytokine mediated response in the endothelial side. […] In other words, inflamed epithelial cells modulate function of the endothelial cells.
Open-Top Organ-Chips were fixed in 10% neutral buffered formalin. Endothelial cells were stained inside the chip by performinutesg the immunofluorescence steps described below directly inside the microfluidic channel. Stroma equivalents were stained as described by the step below inside the chip or alternatively extracted from the chip and processed for immunohistochemistry analysis. […]

[1] = tested on: cellular monolayer barrier; assay: Barrier function in static transwell; assay type: cell-based; conditions: doses up to 100 ng/ml LPS, 10 mM H2O2

Substance: Lipopolysaccharide [LPS]
- ICAM expression, endothelial cells exposed directly (ICAM1; LPS directly on endothelial cells, no epithelium): does not induce expression of ICAM
- vascular expression of ICAM1 (ICAM1; LPS on the alveolar epithelial compartment, 24 h): induced vascular expression of ICAM1; also recorded: induces expression of ICAM on endothelial cells; also recorded: induces ICAM1 expression only in presence of epithelial cells
- loss of barrier function [1]: dose dependent loss of barrier function
